From patent US9708368B2, “Linear peptide antibiotics” (priority 2012, dated 2017)
In brackets after ≈: the same amount, converted by molar mass. Read-outs that look alike come from different tables or passages of the source. Square brackets hold non-standard residues; d marks the D form. Peptide text beside a SMILES is read from it. * marks the point of attachment. ξ: configuration not given here. Biphenylcarbonyl(4'-Bu) = CCCCc1ccc(-c2ccc(C(=O)*)cc2)cc1; Benzoyl(4-hexyl) = CCCCCCc1ccc(C(=O)*)cc1; X5 = C[C@H](N*)B1OC2C3CCC(C3(C)C)C2(C)O1; NMeThr(3ξ) = CN[C@H](C(=O)O)C(C)O; Myristoyl = CCCCCCCCCCCCCC(=O)*; NMeE = CN[C@@H](CCC(=O)O)C(=O)O; Thr(3ξ) = CC(O)[C@H](N)C(=O)O; NMeK = CN[C@@H](CCCCN)C(=O)O; Decanoyl = CCCCCCCCCC(=O)*; boroAla = C[C@H](N*)B(O)O; Dab = NCC[C@H](N)C(=O)O; boroGly = OB(O)CN*; ξP = O=C(O)C1CCCN1; βAla = NCCC(=O)O; ξA = CC(N)C(=O)O

Key:
[1] = system: Escherichia coli MC4100 IMP-4213 in which transcription of the SPase encoding gene is under control of a tetracycline inducible promoter; conditions: Method A; E. coli MC4100 IMP-4213 with decreased SPase expression; 35° C., 22 hours
Protocol: (§1) In vitro antimicrobial activity of each compound was determined by measuring minimal inhibitor concentrations (MICs) using the broth micro-dilution technique as approved by the Clinical and Laboratory Standards Institute (CLSI). […] Cells were inoculated onto Trypyticase Soy Agar or Luria Agar containing 16 ng/ml of anhydrotetracycline respectively and grown at 35° C. for 20 hours. Inocula suspensions were made by scraping cells into 1 mL of testing media (cation adjusted Mueller Hinton Broth supplemented with 0.002% v/v Tween-80) and diluting to a final OD600 nm of 0.01.
(§2) Test compounds were prepared in DMSO at a concentration of 10 mg/ml. […] Inocula suspensions were added to the two fold serial dilutions of test compounds to a final density of OD OD600 nm of 0.0005 and incubated stationary at 35° C. for 22 hours, after which the plates were examined visually.

[2] = system: Methicillin Resistant Staphylococcus aureus strain USA 300 (NRS384); conditions: Method A; MRSA USA 300 (NRS384); 35° C., 22 hours
Protocol: as §1, §2

S. aureus SPase [3] = biological target: T1, S. aureus SPase (Staphylococcus aureus, UniProt P0A070); experiment: biochemical
T1 sequence (P0A070 whole entry): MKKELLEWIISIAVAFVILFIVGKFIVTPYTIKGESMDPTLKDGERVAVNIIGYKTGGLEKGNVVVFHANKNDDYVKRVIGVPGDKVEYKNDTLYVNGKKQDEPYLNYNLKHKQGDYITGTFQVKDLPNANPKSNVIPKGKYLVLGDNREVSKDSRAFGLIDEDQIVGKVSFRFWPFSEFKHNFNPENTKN
Protocol: (§3) Full length His-tagged S. aureus SPase protein was expressed similarly from E. coli BL21(DE3) containing the plasmid pCDF1-SaSpsB and purified similarly to the E. coli protein with the following exceptions. […] Protein purity was judged to exceed 95% by visual inspection of SDS-PAGE followed by Comassie staining. All protein concentrations were determined by BCA assay.
(§4) Reactions were initiated by the addition of substrate to a final concentration of 20 μM. Reaction progress was monitored by measuring the increase in fluorescence signal (excitation at 314 nm, emission at 416 nm) using a SpectraMax M2 fluorescence microplate reader. […] Three-folder serial dilutions of test compounds, starting at 10 μM, were prepared in enzyme mix solution and incubated at room temperature for 10 minutes. Following this incubation, fluorogenic substrate was added to a final concentration of 20 μM and the increase in fluorescence, corresponding to substrate cleavage, was monitored continuously at room temperature for 1 hour. Initial reaction rates were calculated based on the rate of increase in fluorescence during the reaction. Reaction rates were plotted as a function of compound concentration, and IC50 values are determined nonlinear regression analysis (SoftMaxPro 5.4, Molecular Devices™) of the sigmoidal dose-response curve.

E. coli SPase = E. coli SPase (Escherichia coli, UniProt P00803); experiment: Biochemical SPase activity assay (fluorogenic peptide substrate), E. coli enzyme
Chain of E. coli SPase (P00803 whole entry): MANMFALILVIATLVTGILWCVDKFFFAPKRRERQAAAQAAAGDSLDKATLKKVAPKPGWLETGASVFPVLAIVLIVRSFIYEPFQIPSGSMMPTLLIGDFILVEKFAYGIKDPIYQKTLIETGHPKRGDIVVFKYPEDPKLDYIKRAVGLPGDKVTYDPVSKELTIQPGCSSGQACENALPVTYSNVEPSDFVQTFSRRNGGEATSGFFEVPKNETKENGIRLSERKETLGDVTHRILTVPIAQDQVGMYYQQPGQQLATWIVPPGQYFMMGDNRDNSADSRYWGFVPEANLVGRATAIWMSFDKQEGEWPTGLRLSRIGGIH
Protocol: as §4

S. aureus SPase [4] = biological target: T1, S. aureus SPase; conditions: read-out: IC 50 (nM) S. aureus
Protocol: as §3, §4

Row | Structure (SMILES) | MIC (μg/mL) E. coli [1] | MIC (μg/mL) S. aureus [2] | IC50 (S. aureus SPase [3]) | IC50 (E. coli SPase) | IC50 (S. aureus SPase [4]) | IC50 (E. coli SPase; read-out: IC 50 (nM) E. coli, E. coli SPase 2.5 nM, substrate 20 μM, 10 minutes pre-incubation)
1 | CCCCCCc1ccc(C(=O)N[C@H](CO)C(=O)N[C@H](C)C(=O)NCC(=O)N(C)[C@H](C(=O)N[C@@H](C)C(=O)N[C@@H](CC(C)C)C(=O)NCC=O)C(C)O)cc1 (some centres unmarked) [Compound 102] ({Benzoyl(4-hexyl)}-[dS][dA]G[NMeThr(3ξ)]ALG-aldehyde) | >64 µg/mL | >64 µg/mL | 9.7 nM | 18000 nM | – | –
2 | CCCCCCCCCCCCCC(=O)N[C@@H](CC(C)C)C(=O)N[C@H](C(=O)N1CCC[C@@H]1C(=O)N[C@H](C(=O)N[C@@H](C)C(=O)N[C@@H](CC(N)=O)C(=O)NC(C)C=O)C(C)O)C(C)O (some centres unmarked) [Compound 108] (Myristoyl-L[Thr(3ξ)][dP][Thr(3ξ)]AN[ξA]-aldehyde) | >64 µg/mL | 64 µg/mL (≈ 72.6 µM) | 2100 nM | 20000 nM | – | –
3 | CCCCc1ccc(-c2ccc(C(=O)N[C@H](CO)C(=O)N[C@H](C)C(=O)NCC(=O)N[C@H](C(=O)N[C@@H](C)C(=O)N[C@@H](CC(N)=O)C(=O)NCB(O)O)C(C)O)cc2)cc1 (some centres unmarked) [Compound 115] ({Biphenylcarbonyl(4'-Bu)}-[dS][dA]G[Thr(3ξ)]AN-boroGly) | >64 µg/mL | >64 µg/mL | 170 nM | 1000 nM | – | –
4 | CCCCc1ccc(-c2ccc(C(=O)N[C@H](CO)C(=O)N[C@H](C)C(=O)N3CCC[C@H]3C(=O)N[C@H](C(=O)N[C@@H](C)C(=O)N[C@@H](CC(N)=O)C(=O)NCB(O)O)C(C)O)cc2)cc1 (some centres unmarked) [Compound 116] ({Biphenylcarbonyl(4'-Bu)}-[dS][dA]P[Thr(3ξ)]AN-boroGly) | >64 µg/mL | >64 µg/mL | 38 nM | 310 nM | – | –
5 | CCCCc1ccc(-c2ccc(C(=O)N[C@H](CO)C(=O)N[C@H](C)C(=O)NCC(=O)N3CCCC3C(=O)N[C@@H](C)C(=O)N[C@@H](CC(N)=O)C(=O)NCB(O)O)cc2)cc1 (some centres unmarked) [Compound 117] ({Biphenylcarbonyl(4'-Bu)}-[dS][dA]G[ξP]AN-boroGly) | >64 µg/mL | >64 µg/mL | 350 nM | 300 nM | – | –
6 | CCCCc1ccc(-c2ccc(C(=O)NCCC(=O)N[C@@H](CCCCN)C(=O)N[C@H](C(=O)N[C@@H](C)C(=O)N[C@@H](CC(N)=O)C(=O)NCB(O)O)C(C)O)cc2)cc1 (some centres unmarked) [Compound 118] ({Biphenylcarbonyl(4'-Bu)-βAla}-K[Thr(3ξ)]AN-boroGly) | 11 µg/mL (≈ 13.8 µM) | 0.71 µg/mL (≈ 0.891 µM) | 9.4 nM | 1100 nM | – | –
7 | CCCCc1ccc(-c2ccc(C(=O)N[C@H](CO)C(=O)N[C@H](C)C(=O)NCC(=O)N(C)[C@@H](CCC(=O)O)C(=O)N[C@@H](C)C(=O)N[C@@H](CC(N)=O)C(=O)NCB(O)O)cc2)cc1 [Compound 119] ({Biphenylcarbonyl(4'-Bu)}-[dS][dA]G[NMeE]AN-boroGly) | >64 µg/mL | >64 µg/mL | 59 nM | 290 nM | – | –
8 | CCCCc1ccc(-c2ccc(C(=O)N[C@H](CO)C(=O)N[C@H](C)C(=O)NCC(=O)N(C)[C@@H](CCCCN)C(=O)N[C@@H](C)C(=O)N[C@@H](CC(N)=O)C(=O)NCB(O)O)cc2)cc1 [Compound 120] ({Biphenylcarbonyl(4'-Bu)}-[dS][dA]G[NMeK]AN-boroGly) | 32 µg/mL (≈ 37.5 µM) | >64 µg/mL | 100 nM | 1600 nM | – | –
9 | CCCCCCCCCCCCCC(=O)N[C@H](CO)C(=O)N[C@H](C)C(=O)NCC(=O)N(C)[C@H](C(=O)N[C@@H](C)C(=O)N[C@@H](CC(C)C)C(=O)NCB(O)O)C(C)O (some centres unmarked) [Compound 122] (Myristoyl-[dS][dA]G[NMeThr(3ξ)]AL-boroGly) | >64 µg/mL | 40 µg/mL (≈ 50 µM) | 7.6 nM | 1500 nM | – | –
10 | CCCCCCCCCCCCCC(=O)N[C@H](CO)C(=O)N[C@H](C)C(=O)NCC(=O)N(C)[C@H](C(=O)N[C@@H](C)C(=O)N[C@@H](CC(C)C)C(=O)N[C@@H](C)B1OC2C3CCC(C3(C)C)C2(C)O1)C(C)O (some centres unmarked) [Compound 123] (Myristoyl-[dS][dA]G[NMeThr(3ξ)]AL-X5) | 25 µg/mL (≈ 26.4 µM) | 64 µg/mL (≈ 67.5 µM) | 42 nM | 220 nM | – | –
11 | CCCCCCc1ccc(C(=O)N[C@H](CO)C(=O)N[C@H](C)C(=O)NCC(=O)N(C)[C@H](C(=O)N[C@@H](C)C(=O)N[C@@H](CC(N)=O)C(=O)NCB(O)O)C(C)O)cc1 (some centres unmarked) [Compound 124] ({Benzoyl(4-hexyl)}-[dS][dA]G[NMeThr(3ξ)]AN-boroGly) | >64 µg/mL | >64 µg/mL | 83 nM | 810 nM | – | –
12 | CCCCCCCCCC(=O)N[C@@H](CC(C)C)C(=O)N[C@H](C(=O)N1CCC[C@@H]1C(=O)N[C@H](C(=O)N[C@@H](C)C(=O)N[C@@H](Cc1ccc(O)cc1)C(=O)NCB(O)O)C(C)O)C(C)O (some centres unmarked) [Compound 128] (Decanoyl-L[Thr(3ξ)][dP][Thr(3ξ)]AY-boroGly) | >64 µg/mL | >64 µg/mL | 670 nM | 3000 nM | – | –
13 | CCCCc1ccc(-c2ccc(C(=O)N[C@@H](CCN)C(=O)N[C@H](C(=O)N[C@@H](C)C(=O)N[C@@H](CCCCN)C(=O)N[C@@H](C)B(O)O)[C@@H](C)O)cc2)cc1 [Compound 238] ({Biphenylcarbonyl(4'-Bu)}-[Dab]TAK-boroAla) | – | – | – | – | 33 nM | 4.6 nM
